Results reported in patent US12637468B2, “Substituted [1,2,4]triazolo[4,3-b]pyridazines as GABAA receptor modulators” (SHANGHAI SIMR BIOTECHNOLOGY CO., LTD., priority 2019, dated 2026).
Values after ≈ are worked out from the molar mass of the structure shown.

Tests used:
[1] = Thermodynamic solubility in simulated intestinal fluid (TS in FaSSIF); assay type: physicochemical; conditions: thermodynamic from solid, 37° C.
Method: Simulated intestinal fluid FaSSIF: 54.76 mg of FaSSIF-V2 (Biorelevant, batch. V2FAS-0619-A, lot. V2FAS01) was weighed and added to 15 mL of a buffer solution. After dissolving, the solution was supplemented to 30 mL, and put at room temperature for 1 hour before use.
Waters e2695 HPLC high performance liquid chromatography, Mettler XSE105 analytical balance.
Firstly, a 10 mM stock solution was prepared with DMSO, and was diluted with a diluent (ACN: PB buffer 50:50) into 1 μM-200 μM as a standard solution.
Thermodynamic solubility in intestinal fluid (TS in FaSSIF) was simulated. About 0.3 mg of each sample was weighed and added to 1.5 mL of FaSSIF solution, with two parts in parallel, shaken at 1000 rpm at 37° C. for 4 hours, filtered. 1 mL of an initial filtrate was discarded, and 400 μL of the subsequent filtrate was taken. The filtrate was detected by high performance liquid chromatograph (UV).

[2] = target: T1, α5-GABAA receptor (Homo sapiens, UniProt P18507+P31644); test: Cell-level screening: whole cell patch clamp, inverse agonist efficacy on α5-GABAA receptor expressed in HEK293; assay type: cell-based; conditions: drug 100 nM, GABA 0.05 μM, HEK293 expressing α5, β3 and γ2 subunits, clamped at −60 mV; read-out: Compound inverse agonist efficacy %
T1 construct: expressed in transfected cells; host or cells: HEK293, monoclonal stably transfected line
T1 sequence (P31644 32-462): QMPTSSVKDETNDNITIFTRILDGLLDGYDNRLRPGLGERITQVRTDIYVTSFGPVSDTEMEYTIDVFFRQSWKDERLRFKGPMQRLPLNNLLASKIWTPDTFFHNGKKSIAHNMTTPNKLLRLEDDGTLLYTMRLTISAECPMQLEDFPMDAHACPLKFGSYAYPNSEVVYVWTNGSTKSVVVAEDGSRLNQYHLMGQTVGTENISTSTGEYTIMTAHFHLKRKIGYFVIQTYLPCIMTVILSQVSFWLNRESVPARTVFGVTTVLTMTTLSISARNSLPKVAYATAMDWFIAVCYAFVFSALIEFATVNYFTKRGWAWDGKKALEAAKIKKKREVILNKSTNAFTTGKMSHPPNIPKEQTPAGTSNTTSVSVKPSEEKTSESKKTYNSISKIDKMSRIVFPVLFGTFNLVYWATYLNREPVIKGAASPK
T1 sequence (P28472 26-473 partner): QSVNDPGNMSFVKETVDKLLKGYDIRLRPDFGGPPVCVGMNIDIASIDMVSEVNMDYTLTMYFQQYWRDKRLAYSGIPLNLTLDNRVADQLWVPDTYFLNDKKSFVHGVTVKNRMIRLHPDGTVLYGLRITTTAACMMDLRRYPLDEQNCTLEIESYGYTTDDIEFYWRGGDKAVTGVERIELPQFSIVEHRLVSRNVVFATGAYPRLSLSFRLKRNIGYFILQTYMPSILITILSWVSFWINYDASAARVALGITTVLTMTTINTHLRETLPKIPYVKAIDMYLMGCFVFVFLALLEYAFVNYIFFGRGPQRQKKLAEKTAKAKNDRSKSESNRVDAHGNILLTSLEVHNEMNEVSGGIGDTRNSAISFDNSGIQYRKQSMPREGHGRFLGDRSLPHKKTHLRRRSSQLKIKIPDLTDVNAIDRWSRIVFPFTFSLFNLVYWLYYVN
T1 sequence (P18507 40-467 isoform P18507-1 limits assumed): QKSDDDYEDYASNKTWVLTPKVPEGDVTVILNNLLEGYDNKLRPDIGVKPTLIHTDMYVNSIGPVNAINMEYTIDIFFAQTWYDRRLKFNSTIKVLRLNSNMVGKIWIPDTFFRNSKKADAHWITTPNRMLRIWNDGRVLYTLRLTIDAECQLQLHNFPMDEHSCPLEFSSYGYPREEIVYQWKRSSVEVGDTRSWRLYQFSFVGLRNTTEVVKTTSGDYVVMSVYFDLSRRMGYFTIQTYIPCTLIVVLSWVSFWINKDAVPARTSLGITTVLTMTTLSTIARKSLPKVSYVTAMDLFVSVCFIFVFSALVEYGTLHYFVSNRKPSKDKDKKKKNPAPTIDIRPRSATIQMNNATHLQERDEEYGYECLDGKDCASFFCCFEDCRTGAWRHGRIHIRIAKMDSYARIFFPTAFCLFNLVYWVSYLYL
Procedure, shortened: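 Whole-cell patch clamp at −60 mV on HEK293 stably expressing α5β3γ2, pH 7.4 extracellular/CsCl internal solutions. Current evoked by 0.05 μM GABA, then compound in GABA solution; screening at 100 nM, dose-response 0.3–300 nM. Inverse agonist efficacy as % change of GABA current.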

| SMILES | solubility thermodynamic at 4 h [1] [µg/mL] | inhibition at 0.1 µM [2] [%] |
| --- | --- | --- |
| COc1cc2nnc(-c3cc(C)on3)n2nc1OCc1ncnn1C [Embodiment 1, 3-(7-Methoxy-6-((1-methyl-1H-1,2,4-triazol-5-yl)methoxy)-[1,2,4]triazolo[4,3-b]pyridazin-3-yl)-5-methylisoxazole] | 146 (≈ 427 µM) | 41.9 |
| COc1cc2nnc(-c3cc(C)on3)n2nc1OCc1nccc(OC)c1OC [Embodiment 7] | 37.8 (≈ 94.9 µM) | 30.1 |
| COCc1cc(-c2nnc3cc(OC)c(OCc4ccccn4)nn23)no1 [Embodiment 28, 3-(7-Methoxy-6-(pyridin-2-ylmethoxy)-[1,2,4]triazolo[4,3-b]pyridazin-3-yl)-5-(methoxymethyl)isoxazole] | 55.2 (≈ 150 µM) | 35.4 |
| COc1cc2nnc(-c3cc(C)on3)n2nc1OCc1ccc(=O)n(CCCC#N)n1 [Embodiment 36] | 123 (≈ 290 µM) | 25.9 |
| COc1cc2nnc(-c3cc(C)on3)n2nc1OCc1cccnn1 [Embodiment 39] | 180 (≈ 531 µM) | 36.5 |
| COCCn1cc2nc(COc3nn4c(-c5cc(C)on5)nnc4cc3OC)ccc2n1 [Embodiment 240] | 43.5 (≈ 99.7 µM) | – |
| CCn1cnc2ccc(COc3nn4c(-c5cc(C)on5)nnc4cc3OC)nc21 [Embodiment 249] | – | 51.2 |
| COc1cc2nnc(-c3cc(C)on3)n2nc1OCc1ccc2c(ccn2C2COC2)n1 [Embodiment 250] | – | 47.4 |
| COc1cc2nnc(-c3cc(C)on3)n2nc1OCc1ccc2ccn(C3CCOCC3)c2n1 [Embodiment 252] | – | 42.2 |
| COc1cc2nnc(-c3cc(C)on3)n2nc1OCc1ccc2c(n1)CN(C1CCOC1)C2 (centres unmarked) [Embodiment 254] | – | 39 |
| COc1cc2nnc(-c3cc(C)on3)n2nc1OCc1ccc2c(n1)CN(C1COC1)C2 [Embodiment 255] | – | 45.4 |
| COc1cc2nnc(-c3cc(C)on3)n2nc1OCc1ccc2c(n1)CN(CCC#N)C2 [Embodiment 256, 3-(2-(((7-Methoxy-3-(5-methylisoxazol-3-yl)-[1,2,4]triazolo[4,3-b]pyridazin-6-yl)oxy)methyl)-5,7-dihydro-6H-pyrrolo[3,4-b]pyridin-6-yl)propanenitrile] | – | 40.2 |
| COc1cc2nnc(-c3cc(C)on3)n2nc1OCc1ccc2c(n1)CN(CCCC#N)C2 [Embodiment 257] | – | 50 |
| COc1cc2nnc(-c3cc(C)on3)n2nc1OCc1ccc2nn(C3COC3)c(C)c2n1 [Embodiment 258] | – | 54.7 |

Other lines, results leading:

| solubility thermodynamic at 4 h [1] [µg/mL] | inhibition at 0.1 µM [2] [%] | SMILES |
| --- | --- | --- |
| 46.9 (≈ 114 µM) | 42.2 | COCCOc1ccc(COc2nn3c(-c4cc(C)on4)nnc3cc2OC)nc1 [Embodiment 6] |
| 60.3 (≈ 141 µM) | 40.6 | COCCCOc1ccc(COc2nn3c(-c4cc(C)on4)nnc3cc2OC)nc1 [Embodiment 9] |
| 49.2 (≈ 145 µM) | 35.4 | COc1cc2nnc(-c3cc(C)on3)n2nc1OCc1cnccn1 [Embodiment 19] |
| 519 (≈ 1310 µM) | 36.3 | CCNCc1ccc(COc2nn3c(-c4cc(C)on4)nnc3cc2OC)nc1 [Embodiment 21] |
| 43.8 (≈ 129 µM) | 34.1 | COc1cc2nnc(-c3cc(C)on3)n2nc1OCc1ccncn1 [Embodiment 31] |
| 262 (≈ 686 µM) | 41.6 | COCc1ccc(COc2nn3c(-c4cc(C)on4)nnc3cc2OC)nc1 [Embodiment 32] |
| 32.3 (≈ 95.5 µM) | 40.4 | COc1cc2nnc(-c3cc(C)on3)n2nc1OCc1ccccn1 [Embodiment 33, 3-(7-Methoxy-6-(pyridinyl-2-methoxy)-[1,2,4]-triazolo[4,3-b]pyridazin-3-yl)-5-methylisoxazole] |
| 48.7 (≈ 132 µM) | 44.2 | COc1ccc(COc2nn3c(-c4cc(C)on4)nnc3cc2OC)nn1 [Embodiment 43] |
